US9726659B2, “CMPF as a biomarker for diabetes and associated methods” (The Governing Council of the University of Toronto, priority 2012, dated 2017)

Assays:
islets = assay: GSIS with CMPF conjugated to fatty acid-free BSA; assay type: cell-based; conditions: conjugated for 6 hours prior to addition of islets, N=3
Method: CMPF was conjugated to fatty acid free BSA for 6 hours prior to addition of islets for green and blue bars. The same protocol used for the conjugation of oleate was used. Black and white bars indicate addition of CMPF with 0.1% BSA in the media without pre-conjugation. N=3. *P<0.05.

CD1 mice = assay: IP injection for 3 or 7 days: monitoring, fasting values, OGTT, ipITT; assay type: in vivo; conditions: for fasting blood glucose / fasting plasma insulin / glucose tolerance (OGTT) / insulin secretion during OGTT: 14 hr fast
Method: (§1) CD1 mice were injected IP with either vehicle control (black) or CMPF (white). A) Plasma samples were taken at 10, 30, 60, 120 and 360 minutes post-IP injection and assayed for CMPF. […] Over the 3-day course of IP injections, mice were monitored for body weight (B), random-fed blood glucose (C) and plasma insulin (C). There was no difference in any of these parameters. Following 3 consecutive days of CMPF injections, mice were fasted for 14 hrs and OGTTs were performed.
(§2) CD1 mice were injected IP with either vehicle control (black) or CMPF (white). Over the 7-day course of IP injections, mice were monitored for body weight (A), and random-fed blood glucose (B) and plasma insulin (C). […] The lower body weights on day 8 are following a 14-hour fast, immediately prior to the OGTTs. Following 7 consecutive days of CMPF injections, mice were fasted for 14 hrs and OGTTs were performed. […] (n=8 per group, p<0.05).
To investigate the effect of CMPF on glucose homeostasis, (FIG. 8C). […] Therefore, elevated plasma CMPF concentrations cause impaired beta cell function and prevent GSIS in vivo, resulting in glucose intolerance. Chronically elevated CMPF levels may also induce insulin resistance. […]

murine islets = assay: Total insulin content in murine islets; assay type: cell-based; conditions: 200 uM
Method: Murine islets were treated for 24 hrs with vehicle control (0 CMPF), 20 uM (20 CMPF), or 200 uM (200 CMPF) CMPF, and assessed for total insulin content and mRNA expression. […] Decreased expression of insulin processing enzymes PCSK1, 2 and CpE (F), (G), (H) indicate that CMPF may also impair post-translational insulin processing. Finally, CMPF causes decreased expression of the beta cell glucose transporter GLUT2, and GCK, the rate-limiting enzyme critical for glucose metabolism (I) and (J), perhaps impairing glucose sensing and metabolism. In all cases n=4, *P<0.05.
(§3) In the absence of apoptosis and necrosis, CMPF must be impairing GSIS by causing beta cell dysfunction. First, the effect of CMPF treatment on insulin biosynthesis was investigated to determine if insulin is available to be released upon stimulation. MIN6, murine and human islets were treated with vehicle control, 20 uM and 200 uM CMPF for 4 hrs (MIN6) or 24 hrs (islets), and total insulin content measured. […] Lower total insulin content may be due to either defective insulin processing from proinsulin to mature insulin, or insufficient insulin transcription. To determine the mechanism through which CMPF is reducing total insulin content, quantitative PCR (qPCR) was performed on RNA that was isolated from murine islets treated with either vehicle control or 200 uM CMPF for 24 hrs.

[1] = Plasma CMPF after IP injection; assay type: in vivo, CD1 mice; conditions: for up to 2 hours but not at 6 hours post-injection, n=4/group
Method: as §1

human islets = assay: Total insulin content in human islets; assay type: cell-based; conditions: 200 uM, 24 hrs, vs vehicle
Method: as §3

[2] = test system: islets from injected mice; assay: Islets isolated from IP injected mice after the OGTT (ex vivo); assay type: in vivo
Method: as §2
To assess the effect of in vivo administration of CMPF directly on the beta cells, the islets were isolated from the 3-day and 7-day IP injected mice immediately following the OGTT. […] The reduced total insulin content corresponded to lower insulin mRNA levels (FIG. 7D, 3-day injected used as representative), consistent with the in vitro studies described herein.

MIN6 cells = assay: Glucose- and KCl-stimulated insulin secretion in MIN6 cells; assay type: cell-based, murine; conditions: 200 uM
Method: LG=2.8 mM glucose, HG=16.7 mM glucose, KCl=16.7 mM glucose+30 mM KCl. *p<0.05.
Since beta cell failure is a major underlying cause of both GDM and T2D, the effect of increased CMPF on beta cell function was investigated both in vitro and in vivo. Using physiological concentrations of CMPF (20 uM and 200 uM, as observed in our NGT-pregnant and GDM-pregnant samples respectively (FIG. 2)), as well as a vehicle control (EtOH), its effect was studied on glucose-stimulated insulin secretion (GSIS) and insulin secretion in response to direct depolarization using the secretagogue KCl in an immortalized murine beta cell line (MIN6), as well as primary isolated human and murine islets (FIG. 3A). […] Therefore, high physiologically relevant levels of CMPF impair GSIS.

[3] = after seven days of IP injection
[4] = after three days of IP injection

Structure (SMILES): CCCc1oc(CCC(=O)O)c(C(=O)O)c1C [CMPF, 3-carboxy-4-methyl-5-propyl-2-furanpropanoic acid]
- effect of conjugation to fatty acid-free BSA on CMPF-impaired GSIS (islets): no effect
- body weight (CD1 mice; 3-day course of IP injections): no difference
- random-fed blood glucose (CD1 mice; 3-day course of IP injections): no difference
- random-fed plasma insulin (CD1 mice; 3-day course of IP injections): no difference
- body weight (CD1 mice; 7-day course of IP injections): no difference
- random-fed blood glucose (CD1 mice; 7-day course of IP injections): no difference
- fasting blood glucose (CD1 mice; [3]): significantly higher
- fasting plasma insulin (CD1 mice; [3]): significantly higher
- fasting blood glucose (CD1 mice; [4]): significantly higher
- fasting plasma insulin (CD1 mice; [4]): significantly lower
- glucose tolerance (OGTT) (CD1 mice; after 3 days of IP injection): impaired glucose tolerance
- insulin secretion during OGTT (CD1 mice; after 3 days of IP injection): significantly impaired insulin secretion
- glucose tolerance (OGTT) (CD1 mice; after 7 days of IP injection): significantly impaired glucose tolerance
- insulin secretion during OGTT (CD1 mice; after 7 days of IP injection): significantly impaired insulin secretion
- random-fed plasma insulin (CD1 mice; days 4-7 of injections): significantly elevated
- fed-state glucagon (CD1 mice; seven-day treatment): hyperglucagonemia
- insulin sensitivity by insulin-tolerance testing (ipITT) (CD1 mice; seven-day treatment, vs vehicle): no significant difference
- total DNA (murine islets): absence of changes
- total insulin content (murine islets; 24 hrs, vs vehicle): significantly reduced
- plasma CMPF level after IP injection [1]: significantly elevated
- total insulin content (human islets): significantly reduced
- GSIS of isolated islets ([2]; 3 days IP): impaired GSIS
- insulin mRNA of isolated islets ([2]; 3 days IP): decreased insulin mRNA
- islet size ([2]; 3 days IP): no significant difference
- total insulin content of isolated islets ([2]; 3 days IP): decreased total insulin content
- insulin secretion of isolated islets under high glucose ([2]; 7 days IP): significantly reduced insulin secretion
- insulin secretion of isolated islets under low glucose ([2]; 7 days IP): significantly increased insulin secretion
- KCl-stimulated insulin secretion (MIN6 cells; 4 hour pre-incubation): significantly impairs
- glucose-stimulated insulin secretion (GSIS) (MIN6 cells; 4 hour pre-treatment, vs 20 uM and vehicle): significantly impaired
